Test results as given in ChEMBL document CHEMBL1201862, “PubChem BioAssay data set” (2004).
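How tested: cells in 96-well plates exposed to compound for 48 hours at five concentrations. GI50: concentration for 50% inhibition of growth.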 The source made the active and inactive calls. Cut-off read from the data, not from the text of the source: active = GI50 up to about 1.1 µM and inactive = higher.

Legend:
Test in all cases: NCI tumour cell line growth inhibition, 48 h
786-0 = test system: 786-0
A498 = test system: A498
ACHN = test system: ACHN
CCRF-CEM = test system: CCRF-CEM
DU-145 = test system: DU-145
HL-60 = test system: HL-60
HOP-62 = test system: HOP-62
Hs-578T = test system: Hs-578T
IGROV-1 = test system: IGROV-1
LOX IMVI = test system: LOX IMVI
M14 = test system: M14
MDA-MB-435 = test system: MDA-MB-435
OVCAR-5 = test system: OVCAR-5
RXF 393 = test system: RXF 393
SF-539 = test system: SF-539
SK-OV-3 = test system: SK-OV-3
SW-620 = test system: SW-620
TK-10 = test system: TK-10
U-251 = test system: U-251

COC(=O)c1cccc(OC)c1C#Cc1c(OC)cccc1OC
GI50 (786-0): > 100 µM (inactive)
GI50 (A498): > 100 µM (inactive)
GI50 (ACHN): > 100 µM (inactive)
GI50 (CCRF-CEM): > 100 µM (inactive)
GI50 (DU-145): > 100 µM (inactive)
GI50 (HL-60): > 100 µM (inactive)
GI50 (HOP-62): > 100 µM (inactive)
GI50 (Hs-578T): > 100 µM (inactive)
GI50 (IGROV-1): > 100 µM (inactive)
GI50 (LOX IMVI): > 100 µM (inactive)
GI50 (M14): > 100 µM (inactive)
GI50 (MDA-MB-435): 47.8 µM (inactive)
GI50 (OVCAR-5): > 100 µM (inactive)
GI50 (RXF 393): > 100 µM (inactive)
GI50 (SF-539): > 100 µM (inactive)
GI50 (SK-OV-3): > 100 µM (inactive)
GI50 (SW-620): > 100 µM (inactive)
GI50 (TK-10): > 100 µM (inactive)
GI50 (U-251): > 100 µM (inactive)

O=C1/C(=C/c2ccccc2O)N=C(c2ccccc2)N1C1Nc2cc3c(cc2S1)NC(N1C(=O)/C(=C/c2ccccc2O)N=C1c1ccccc1)S3 (stereo not given)
GI50 (786-0): 25.4 µM (inactive)
GI50 (A498): 20 µM (inactive)
GI50 (ACHN): 21.7 µM (inactive)
GI50 (CCRF-CEM): 39.7 µM (inactive)
GI50 (DU-145): 42.8 µM (inactive)
GI50 (HL-60): 28.9 µM (inactive)
GI50 (HOP-62): 31.2 µM (inactive)
GI50 (Hs-578T): 30.5 µM (inactive)
GI50 (IGROV-1): 14.2 µM (inactive)
GI50 (LOX IMVI): 42.2 µM (inactive)
GI50 (M14): 38.3 µM (inactive)
GI50 (MDA-MB-435): 14.8 µM (inactive)
GI50 (OVCAR-5): > 100 µM (inactive)
GI50 (RXF 393): 23.7 µM (inactive)
GI50 (SF-539): 36.1 µM (inactive)
GI50 (SK-OV-3): 35.8 µM (inactive)
GI50 (SW-620): 36.3 µM (inactive)
GI50 (TK-10): 25.4 µM (inactive)
GI50 (U-251): 29.6 µM (inactive)

CC1C2CC(CC23OCC(CCl)O3)C1(C)C (stereo not given)
GI50 (786-0): > 100 µM (inactive)
GI50 (A498): > 100 µM (inactive)
GI50 (ACHN): > 100 µM (inactive)
GI50 (CCRF-CEM): > 100 µM (inactive)
GI50 (DU-145): > 100 µM (inactive)
GI50 (HL-60): > 100 µM (inactive)
GI50 (HOP-62): > 100 µM (inactive)
GI50 (Hs-578T): > 100 µM (inactive)
GI50 (IGROV-1): > 100 µM (inactive)
GI50 (LOX IMVI): > 100 µM (inactive)
GI50 (M14): > 100 µM (inactive)
GI50 (MDA-MB-435): > 100 µM (inactive)
GI50 (RXF 393): > 100 µM (inactive)
GI50 (SF-539): > 100 µM (inactive)
GI50 (SK-OV-3): > 100 µM (inactive)
GI50 (SW-620): > 100 µM (inactive)
GI50 (TK-10): > 100 µM (inactive)

CCOC(=O)C(NC(=O)c1ccccc1)(N1CCN(c2cc3c(cc2F)c(=O)c(C(=O)O)cn3CC)CC1)C(F)(F)F (stereo not given)
GI50 (786-0): 39.7 µM (inactive)
GI50 (A498): 24.5 µM (inactive)
GI50 (ACHN): 33.1 µM (inactive)
GI50 (CCRF-CEM): 21.8 µM (inactive)
GI50 (DU-145): 59.3 µM (inactive)
GI50 (HL-60): 20 µM (inactive)
GI50 (HOP-62): 31.2 µM (inactive)
GI50 (Hs-578T): 43.3 µM (inactive)
GI50 (IGROV-1): 38.4 µM (inactive)
GI50 (LOX IMVI): 15.6 µM (inactive)
GI50 (M14): 51.1 µM (inactive)
GI50 (MDA-MB-435): 29.2 µM (inactive)
GI50 (OVCAR-5): 21.1 µM (inactive)
GI50 (RXF 393): 33.8 µM (inactive)
GI50 (SF-539): 26.5 µM (inactive)
GI50 (SK-OV-3): 34.3 µM (inactive)
GI50 (SW-620): 47.6 µM (inactive)
GI50 (TK-10): 29.4 µM (inactive)
GI50 (U-251): 41.2 µM (inactive)

Cc1cc2nc(-c3cc(C(C)(C)C)c(O)c(C(C)(C)C)c3)[nH]c2cc1C
GI50 (786-0): 0.867 µM (active)
GI50 (A498): > 100 µM (inactive)
GI50 (CCRF-CEM): 1.39 µM (inactive)
GI50 (DU-145): > 100 µM (inactive)
GI50 (HL-60): 13.8 µM (inactive)
GI50 (HOP-62): > 100 µM (inactive)
GI50 (Hs-578T): 17.2 µM (inactive)
GI50 (IGROV-1): 5.08 µM (inactive)
GI50 (LOX IMVI): 4.16 µM (inactive)
GI50 (M14): 4.67 µM (inactive)
GI50 (MDA-MB-435): > 23.3 µM (inactive)
GI50 (OVCAR-5): > 100 µM (inactive)
GI50 (RXF 393): > 100 µM (inactive)
GI50 (SF-539): 28.1 µM (inactive)
GI50 (SK-OV-3): > 100 µM (inactive)
GI50 (SW-620): 1.65 µM (inactive)
GI50 (TK-10): > 22.3 µM (inactive)
GI50 (U-251): 2.64 µM (inactive)

CCOC(CN(C)C(=O)Nc1cccc2ccccc12)OCC
GI50 (786-0): > 10 µM (inactive)
GI50 (A498): > 10 µM (inactive)
GI50 (ACHN): > 10 µM (inactive)
GI50 (CCRF-CEM): > 10 µM (inactive)
GI50 (DU-145): > 10 µM (inactive)
GI50 (HL-60): > 10 µM (inactive)
GI50 (HOP-62): > 10 µM (inactive)
GI50 (Hs-578T): > 10 µM (inactive)
GI50 (IGROV-1): > 10 µM (inactive)
GI50 (LOX IMVI): > 10 µM (inactive)
GI50 (M14): > 10 µM (inactive)
GI50 (MDA-MB-435): > 10 µM (inactive)
GI50 (RXF 393): > 10 µM (inactive)
GI50 (SF-539): > 10 µM (inactive)
GI50 (SK-OV-3): > 10 µM (inactive)
GI50 (SW-620): > 10 µM (inactive)
GI50 (TK-10): > 10 µM (inactive)
GI50 (U-251): > 10 µM (inactive)
